pIC50: −log10 of the molar value. Structures can show the parent of a compound that is named as a salt.
Key:
Bacillus cereus = experiment: In vitro antibacterial (ABMF) microdilution test, Bacillus cereus; format: cell-based; settings: Mueller-Hinton broth, 37° C., 16-24 hours, read-out: ABMF minimal inhibitory conc, B. cer.
Procedure, shortened: (§1)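 A modified standard microdilution procedure in Mueller-Hinton broth is used, testing the compound across eight concentrations between 1000 and 0.46 micrograms per milliliter.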

Branhamella catarrhalis = experiment: In vitro antibacterial (ABMF) microdilution test, Branhamella catarrhalis; format: cell-based; settings: Moraxella catarrhalis; Mueller-Hinton broth, 37° C., 16-24 hours; read-out: ABMF minimal inhibitory conc, B. cat.
Procedure, shortened: as §1

[1] = tested on: lymphocytic leukemia P388; experiment: In vivo lymphocytic leukemia P388 test; set-up: species or system CD2 F1 mice; settings: Mus musculus, P388, ip, intraperitoneal, once daily for five days, survival time treated/control, read-out: P388 in vivo T/C × 100
Procedure, shortened: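 CD2 F1 mice (six or seven per group) received P388 leukemia cells intraperitoneally in diluted ascitic fluid, then compound i.p. once daily for five consecutive days at various doses. Survival was followed for 30 days; activity expressed as treated/control survival time ratio ×100, efficacy criterion ≥125.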

Streptococcus pneumoniae = experiment: In vitro antibacterial (ABMF) microdilution test, Streptococcus pneumoniae; format: cell-based; settings: Mueller-Hinton broth, 37° C., 16-24 hours, read-out: ABMF minimal inhibitory conc, S. pneu.
Procedure, shortened: as §1

[2] = tested on: L1210 murine leukemia cell lines; experiment: In vitro antitumor screening (PDC test), L1210 murine leukemia cell growth; format: cell-based; settings: Mus musculus, 72 h; L1210 cells, 37° C., three days; value is ID50 multiplied by 10^7
Escherichia coli = experiment: In vitro antibacterial (ABMF) microdilution test, Escherichia coli; format: cell-based; settings: Mueller-Hinton broth, 37° C., 16-24 hours, read-out: ABMF minimal inhibitory conc, E. coli
Procedure, shortened: as §1

HCT-8 cells = experiment: In vitro proliferating human colon adenocarcinoma (HCA) cell screen, HCT-8 cells; format: cell-based; settings: 60-65 hours at 37° C., value is ID50 multiplied by 10^7;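 further: ID50 is the molar concentration giving 50% growth inhibition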
Procedure, shortened: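 HCT-8 colon adenocarcinoma cells grown in RPMI 1640 with 10% FCS, pre-incubated about 48 h at 37 °C, 5% CO2 before compound titration, then incubated a further 60–65 h. Cells lysed and nuclei counted by Coulter counter; percent growth calculated per drug concentration.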

[3] = tested on: Corynebacterium Sp. ATCC 21698; experiment: In vitro antibacterial (ABMF) microdilution test, Corynebacterium Sp.; format: cell-based; settings: ATCC21698, Mueller-Hinton broth, 37° C., 16-24 hours, read-out: ABMF minimal inhibitory conc, Coryn. Species
Procedure, shortened: as §1

With `CCN(CC)CCCNc1ccc([N+](=O)[O-])c2[nH]c3ccc(OC)cc3c(=O)c12` [Example 26, 1-[[3-(Diethylamino)propyl]amino]-7-methoxy-4-nitro-9(10H)-acridinone, methanesulfonate (salt) (1:1)] the MIC (Bacillus cereus) was 12.3 µg/mL, the MIC (Branhamella catarrhalis) was < 0.46 µg/mL and the response vs control in vivo at 12.5 mg/kg ([1]; 12.5 mg/kg) was 127%. For the same compound, the response vs control in vivo at 25 mg/kg ([1]; 25 mg/kg) was 142%, the response vs control in vivo at 50 mg/kg [1] was 161% and the response vs control in vivo at 100 mg/kg [1] was 198%. The MIC (Streptococcus pneumoniae) was 4.1 µg/mL, the pIC50 [2] was 7.11 and the MIC (Escherichia coli) was 12.3 µg/mL. The pIC50 (HCT-8 cells) was 6.57 and the MIC [3] was 0.46 µg/mL.

Work on `COc1ccc2c(c1)c(=O)c1c(NCCCN(C)C)ccc([N+](=O)[O-])c1n2C.CS(=O)(=O)O` [Example 34, 1-[[3-(Dimethylamino)propyl]amino]-7-methoxy-10-methyl-4-nitro-9(10H)-acridinone, methanesulfonate (1:1)] yielded an MIC (Bacillus cereus) of 12.3 µg/mL, an MIC (Branhamella catarrhalis) of 12.3 µg/mL and a response vs control in vivo at 50 mg/kg [1] of 123%. For the same compound, the response vs control in vivo at 100 mg/kg [1] was 136%, the MIC (Streptococcus pneumoniae) was 12.3 µg/mL and the pIC50 [2] was 6.11. For the same compound, the MIC (Escherichia coli) was 12.3 µg/mL, the pIC50 (HCT-8 cells) was 6.15 and the MIC [3] was 12.3 µg/mL.

Reference: US4626540A, “Substituted 1-amino-4-nitro-acridinones and methods of treating bacterial infections and leukemia with them” (Warner-Lambert Company, priority 1984, dated 1986)
